Data taken from PubChem BioAssay AID1963825 (Molecular Pharmacology Branch, DTP, NCI, 2024).

Assay: Anticancer human tumor 997537-175-T-J1-PDC patient-derived colon adenocarcinoma cell line growth inhibition [POLQ]
Settings: 997537-175-T-J1-PDC complex spheroid viability, combination with POLQ inhibitors; for IC50: curve of first compound; for viability, T/C: stronger effect = lower value
Procedure, shortened: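 Patient-derived tumour cells were co-cultured with HUVEC and mesenchymal stem cells as multicellular spheroids at 37 °C. They were treated with POLQ inhibitors (novobiocin, ART-558, RP6685) alone or combined with other agents. Top concentrations were at or near clinical Cmax (otherwise 10 microM; SN-38 at 1 microM), decreasing in half-log steps.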
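Also: luminescence signal used as a surrogate for viable cells; spheroids exposed to drugs for seven days before readout.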

## CC[C@@]1(O)C(=O)OCc2c1cc1n(c2=O)Cc2cc3c(CN(C)C)c(O)ccc3nc2-1 + Nc1ccc(C#CCN(C(=O)Cc2ncc(C(F)(F)F)cc2C(F)(F)F)c2ccc(F)cc2)nn1
Second compound 0.0316 µM
  IC50: > 100 nM
Second compound 0.1 µM
  IC50: > 100 nM
Second compound 0.316 µM
  IC50: 90.8 nM
Second compound 1 µM
  IC50: > 100 nM
Second compound 3.16 µM
  IC50: > 100 nM
Second compound 10 µM
  IC50: > 100 nM
Second compound 0.0316 µM, first compound 0.000316 µM
  viability, T/C: 104%
Second compound 0.0316 µM, first compound 0.001 µM
  viability, T/C: 94.6%
Second compound 0.0316 µM, first compound 0.00316 µM
  viability, T/C: 104%
Second compound 0.0316 µM, first compound 0.01 µM
  viability, T/C: 111%
Second compound 0.0316 µM, first compound 0.0316 µM
  viability, T/C: 94.7%
Second compound 0.0316 µM, first compound 0.1 µM
  viability, T/C: 66.3%
Second compound 0.1 µM, first compound 0.000316 µM
  viability, T/C: 101%
Second compound 0.1 µM, first compound 0.001 µM
  viability, T/C: 91%
Second compound 0.1 µM, first compound 0.00316 µM
  viability, T/C: 101%
Second compound 0.1 µM, first compound 0.01 µM
  viability, T/C: 103%
Second compound 0.1 µM, first compound 0.0316 µM
  viability, T/C: 83.2%
Second compound 0.1 µM, first compound 0.1 µM
  viability, T/C: 58.3%
Second compound 0.316 µM, first compound 0.000316 µM
  viability, T/C: 104%
Second compound 0.316 µM, first compound 0.001 µM
  viability, T/C: 90.9%
Second compound 0.316 µM, first compound 0.00316 µM
  viability, T/C: 107%
Second compound 0.316 µM, first compound 0.01 µM
  viability, T/C: 101%
Second compound 0.316 µM, first compound 0.0316 µM
  viability, T/C: 77.3%
Second compound 0.316 µM, first compound 0.1 µM
  viability, T/C: 47.5%
Second compound 1 µM, first compound 0.000316 µM
  viability, T/C: 93.3%
Second compound 1 µM, first compound 0.001 µM
  viability, T/C: 89.8%
Second compound 1 µM, first compound 0.00316 µM
  viability, T/C: 102%
Second compound 1 µM, first compound 0.01 µM
  viability, T/C: 101%
Second compound 1 µM, first compound 0.0316 µM
  viability, T/C: 83.9%
Second compound 1 µM, first compound 0.1 µM
  viability, T/C: 57.2%
Second compound 3.16 µM, first compound 0.000316 µM
  viability, T/C: 95.7%
Second compound 3.16 µM, first compound 0.001 µM
  viability, T/C: 98.2%
Second compound 3.16 µM, first compound 0.00316 µM
  viability, T/C: 107%
Second compound 3.16 µM, first compound 0.01 µM
  viability, T/C: 100%
Second compound 3.16 µM, first compound 0.0316 µM
  viability, T/C: 79%
Second compound 3.16 µM, first compound 0.1 µM
  viability, T/C: 60.6%
Second compound 10 µM, first compound 0.000316 µM
  viability, T/C: 96.7%
Second compound 10 µM, first compound 0.001 µM
  viability, T/C: 99.4%
Second compound 10 µM, first compound 0.00316 µM
  viability, T/C: 116%
Second compound 10 µM, first compound 0.01 µM
  viability, T/C: 107%
Second compound 10 µM, first compound 0.0316 µM
  viability, T/C: 81.3%
Second compound 10 µM, first compound 0.1 µM
  viability, T/C: 58.5%
